Test results taken from US20250017914A1, “6-AZA-QUINOLINE DERIVATIVES AND RELATED USES” (Black Diamond Therapeutics, Inc., priority 2021, published 2025).

Target: T1, BaF3 BRAF-KIAA1549 fusion cells (Homo sapiens, UniProt P15056)
T1 construct: The BRAF-KIAA1549 fusion mutant was subcloned into pMXs-IRES-Blasticidin (RTV-016, Cell Biolabs, San Diego, CA); No tag given; Q9HCM3 (UPF0606 protein KIAA1549)
Assay: BaF3 BRAF-KIAA1549 fusion cell proliferation assay (CellTiterGlo, 96 hours)
Format: cell-based
Settings: Table A1
Experimental: Retroviral Production: The BRAF-KIAA1549 fusion mutant was subcloned into pMXs-IRES-Blasticidin (RTV-016, Cell Biolabs, San Diego, CA). Retrovirus was produced by transfection of HEK 293T cells with the retroviral BRAF mutant expression vector pMXs-IRES-Blasticidin (RTV-016, Cell Biolabs), pCMV-Gag-Pol vector and pCMV-VSV-G-Envelope vector. Briefly, HEK 293T cells were plated in Poly-D-lysine coated 6-well plate (2.5×10^5 cells per well) and incubated overnight. The next day, retroviral plasmids (1 μg of BRAF-KIAA fusion mutant, 0.32 μg of pCMV-Gag-Pol and 0.165 μg pCMV-VSV-G) were mixed in 300 μL of Optimem (31985, Life Technologies). The mixture was incubated at room temperature for 5 minutes and then added to Optimem containing transfection reagent Lipofectamine (11668, Invitrogen) and incubated for 20 minutes. The mixture was then added dropwise to HEK 293T cells. The next day the medium was replaced with fresh culture medium and retrovirus was harvested at 24 hours.
Generation of BRAF-KIAA1549 fusion stable cell line: BaF3 cells were plated in V-bottom 96 well plate (COSTAR #3894) in 80 μL of RPMI/10% FBS and 0.01 ng/mL mouse IL-3, supplemented with 8 μg/mL polybrene (4×10^4 cells/well). Cells were transduced with 20 μL of BRAF-KIAA1549 fusion viral supernatant by centrifuging for 30 minutes at 1000 rpm. Cells were placed in a 37° C. incubator overnight. Next day 100 μL of RPMI/10% FBS and 0.01 ng/mL mouse IL-3 was added. After 24 hours, 100 μL of cells were transferred to a 24 well plate containing 900 μL of RPM/10% FBS and 15 μg/mL Blasticidin. Contents of the 24 well plate were sampled for cell viability via CellTiterGlo (Promega) over a 2-week period.
Assay for cell proliferation: BaF3 BRAF-KIAA1549 fusion cells were resuspended at 1.5×10^5 c/mL in RPMI containing 10% Heat Inactivated FBS, 1% L-glutamine and dispensed in duplicate (7×10^4 c/well) into 384 well plates. To determine the effect of compound on cell proliferation, BaF3 BRAF-KIAA1549 fusion cells were incubated for 96 hours in the presence of vehicle control (DMSO) or compound at varying concentrations. Inhibition of cell growth was determined by luminescent quantification (Envision by Perkin Elmer) of intracellular ATP content using CellTiterGlo (Promega), according to the protocol provided by the manufacturer. To determine the IC50 values, the vehicle-treated cells were normalized as viable cells and analyzed using the CDD Vault, Collaborative Drug Discovery, Burlingame, CA (the Levenberg-Marquardt algorithm; Levenberg, K., […]; Marquardt, D., 1963).
Tables A1 and A2 assign each compound a code for potency in the BaF3 BRAF-KIAA1549 fusion cell proliferation assay: A, B, C, or D. According to the code, A represents an IC50 value <20 nM; B represents an IC50 value ≥20 nM and <100 nM; C represents an IC50 value ≥100 nM and <500 nM; and D represents an IC50 value ≥500 nM.

T1 sequence (P15056 whole entry, change not shown, the tested form may be a part): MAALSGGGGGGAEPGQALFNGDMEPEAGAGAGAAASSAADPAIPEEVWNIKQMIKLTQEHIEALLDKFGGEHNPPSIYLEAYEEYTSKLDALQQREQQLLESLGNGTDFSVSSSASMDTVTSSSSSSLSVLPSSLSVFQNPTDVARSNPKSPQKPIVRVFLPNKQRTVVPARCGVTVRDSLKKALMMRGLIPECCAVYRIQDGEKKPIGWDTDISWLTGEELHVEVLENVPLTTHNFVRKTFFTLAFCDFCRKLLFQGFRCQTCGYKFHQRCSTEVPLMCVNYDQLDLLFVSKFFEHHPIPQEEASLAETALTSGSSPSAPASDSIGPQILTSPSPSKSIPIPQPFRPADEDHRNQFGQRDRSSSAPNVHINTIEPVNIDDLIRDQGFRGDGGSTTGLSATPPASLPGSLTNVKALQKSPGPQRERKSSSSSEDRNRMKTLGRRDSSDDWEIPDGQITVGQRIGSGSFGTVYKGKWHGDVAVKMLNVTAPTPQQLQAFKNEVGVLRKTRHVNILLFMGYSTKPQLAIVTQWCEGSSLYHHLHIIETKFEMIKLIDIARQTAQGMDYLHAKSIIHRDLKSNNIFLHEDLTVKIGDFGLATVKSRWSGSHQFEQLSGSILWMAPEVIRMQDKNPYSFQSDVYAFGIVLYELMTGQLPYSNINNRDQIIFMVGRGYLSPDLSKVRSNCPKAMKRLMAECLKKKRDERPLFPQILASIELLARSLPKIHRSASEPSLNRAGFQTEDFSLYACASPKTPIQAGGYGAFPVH

| GI50 [nM] | SMILES |
| --- | --- |
| ≥ 500 | CNc1cc2ncc(-c3cc(NC(=O)c4cc(C(C)(C)C#N)ccn4)c(F)c(F)c3C)cc2cn1 [Compound 51, 4-(2-Cyanopropan-2-yl)-N-(2,3-difluoro-4-methyl-5-(7-(methylamino)-1,6-naphthyridin-3-yl)phenyl)picolinamide] |
| < 20 | CNc1cc2ncc(-c3cc(NC(=O)c4nccc(C(F)(F)F)c4F)cnc3C)cc2cn1 [Compound 52, 3-Fluoro-N-(6-methyl-5-(7-(methylamino)-1,6-naphthyridin-3-yl)pyridin-3-yl)-4-(trifluoromethyl)picolinamide] |
| 20 to 100 | CNc1cc2ncc(-c3cc(C(=O)Nc4cc(C(C)(C)C#N)ccn4)ccc3C)cc2cn1 [Compound 53, N-(4-(2-cyanopropan-2-yl)pyridin-2-yl)-4-methyl-3-(7-(methylamino)-1,6-naphthyridin-3-yl)benzamide] |
| < 20 | CNc1cc2ncc(-c3cc(NC(=O)c4ccnc(C(C)(C)C#N)c4)cnc3C)cc2cn1 [Compound 55, 2-(2-Cyanopropan-2-yl)-N-(6-methyl-5-(7-(methylamino)-1,6-naphthyridin-3-yl)pyridin-3-yl)isonicotinamide] |
| 20 to 100 | CNc1cc2ncc(-c3cc(NC(=O)c4ccnc(C(C)(C)C#N)c4)ccc3C)cc2cn1 [Compound 56, 2-(2-Cyanopropan-2-yl)-N-(4-methyl-3-(7-(methylamino)-1,6-naphthyridin-3-yl)phenyl)isonicotinamide] |
| < 20 | CNc1cc2ncc(-c3cc(NC(=O)c4ccnc(C(C)C)c4)cnc3C)cc2cn1 [Compound 57, 2-Isopropyl-N-(6-methyl-5-(7-(methylamino)-1,6-naphthyridin-3-yl)pyridin-3-yl)isonicotinamide] |
| 20 to 100 | CNc1cc2ncc(-c3cc(NC(=O)c4ccnc(C(C)(C)C)c4)cnc3C)cc2cn1 [Compound 58, 2-(tert-Butyl)-N-(6-methyl-5-(7-(methylamino)-1,6-naphthyridin-3-yl)pyridin-3-yl)isonicotinamide] |
| 20 to 100 | CNc1cc2ncc(-c3cc(C(=O)Nc4cc(C(C)(C)C#N)ccn4)cnc3C)cc2cn1 [Compound 59, N-(4-(2-Cyanopropan-2-yl)pyridin-2-yl)-6-methyl-5-(7-(methylamino)-1,6-naphthyridin-3-yl)nicotinamide] |
| < 20 | CNc1cc2ncc(-c3cc(NC(=O)c4cc(C(F)(F)F)c(F)cn4)cnc3C)cc2cn1 [Compound 60, 5-Fluoro-N-(6-methyl-5-(7-(methylamino)-1,6-naphthyridin-3-yl)pyridin-3-yl)-4-(trifluoromethyl)picolinamide] |
| 100 to 500 | CNc1cc2ncc(-c3cc(NC(=N)c4cc(C(F)(F)F)ccn4)ccc3C)cc2cn1 [Compound 61, N-(4-Methyl-3-(7-(methylamino)-1,6-naphthyridin-3-yl)phenyl)-4-(trifluoromethyl)picolinimidamide] |
| 20 to 100 | CNc1cc2ncc(-c3cc(NC(=O)CN4CCC[C@H](C(F)(F)F)C4)cnc3C)cc2cn1 [Compound 62, (S)—N-(6-Methyl-5-(7-(methylamino)-1,6-naphthyridin-3-yl)pyridin-3-yl)-2-(3-(trifluoromethyl)piperidin-1-yl)acetamide] |
| 20 to 100 | CNc1cc2ncc(-c3cc(NC(=O)CN4CCC[C@H](C(F)(F)F)C4)ccc3C)cc2cn1 [Compound 63, (S)—N-(4-Methyl-3-(7-(methylamino)-1,6-naphthyridin-3-yl)phenyl)-2-(3-(trifluoromethyl)piperidin-1-yl)acetamide] |

Second part, the compound before the results:

| SMILES | GI50 [nM] |
| --- | --- |
| CNc1cc2ncc(-c3cc(NC(=O)c4ccnc(C5CC(F)(F)C5)c4)cnc3C)cc2cn1 [Compound 34, 2-(3,3-Difluorocyclobutyl)-N-(6-methyl-5-(7-(methylamino)-1,6-naphthyridin-3-yl)pyridin-3-yl)isonicotinamide] | 20 to 100 |
| CNc1cc2ncc(-c3cc(NC(=O)c4cc(C(C)(C)C#N)ccn4)c(F)cc3Cl)cc2cn1 [Compound 37, N-(4-Chloro-2-fluoro-5-(7-(methylamino)-1,6-naphthyridin-3-yl)phenyl)-4-(2-cyanopropan-2-yl)picolinamide] | 20 to 100 |
| CNc1cc2ncc(-c3cc(NC(=O)c4cc(C(C)(C)C#N)ccn4)cc(F)c3C)cc2cn1 [Compound 38, 4-(2-Cyanopropan-2-yl)-N-(3-fluoro-4-methyl-5-(7-(methylamino)-1,6-naphthyridin-3-yl)phenyl)picolinamide] | 20 to 100 |
| CNc1cc2ncc(-c3cc(NC(=O)c4cc(C(C)(C)C#N)ccn4)cc(F)c3F)cc2cn1 [Compound 39, 4-(2-Cyanopropan-2-yl)-N-(3,4-difluoro-5-(7-(methylamino)-1,6-naphthyridin-3-yl)phenyl)picolinamide] | 20 to 100 |
| CNc1cc2ncc(-c3cc(NC(=O)c4cc(C(C)(C)C#N)ccn4)ccc3F)cc2cn1 [Compound 40, 4-(2-cyanopropan-2-yl)-N-(4-fluoro-3-(7-(methylamino)-1,6-naphthyridin-3-yl)phenyl)picolinamide] | 20 to 100 |
| CNc1cc2ncc(-c3cc(NC(=O)c4cc(C(C)(C)C#N)ccn4)ccc3Cl)cc2cn1 [Compound 41, N-(4-Chloro-3-(7-(methylamino)-1,6-naphthyridin-3-yl)phenyl)-4-(2-cyanopropan-2-yl)picolinamide] | 20 to 100 |
| CNc1cc2ncc(-c3cc(NC(=O)c4cc(C(C)(C)C#N)ccn4)c(F)cc3C)cc2cn1 [Compound 42, 4-(2-Cyanopropan-2-yl)-N-(2-fluoro-4-methyl-5-(7-(methylamino)-1,6-naphthyridin-3-yl)phenyl)picolinamide] | 20 to 100 |
| CNc1cc2ncc(-c3cc(NC(=O)c4cc(C(C)(C)C#N)ccn4)c(F)cc3F)cc2cn1 [Compound 43, 4-(2-Cyanopropan-2-yl)-N-(2,4-difluoro-5-(7-(methylamino)-1,6-naphthyridin-3-yl)phenyl)picolinamide] | 20 to 100 |
| CNc1cc2ncc(-c3cc(NC(=O)c4cc(C(C)(C)C#N)ccn4)cc(F)c3Cl)cc2cn1 [Compound 44, N-(4-chloro-3-fluoro-5-(7-(methylamino)-1,6-naphthyridin-3-yl)phenyl)-4-(2-cyanopropan-2-yl)picolinamide] | 20 to 100 |
| CNc1cc2ncc(-c3ccc(F)c(NC(=O)c4cc(C(C)(C)C#N)ccn4)c3)cc2cn1 [Compound 45, 4-(2-Cyanopropan-2-yl)-N-(2-fluoro-5-(7-(methylamino)-1,6-naphthyridin-3-yl)phenyl)picolinamide] | 100 to 500 |
| CNc1cc2ncc(-c3cc(F)c(F)c(NC(=O)c4cc(C(C)(C)C#N)ccn4)c3)cc2cn1 [Compound 46, 4-(2-Cyanopropan-2-yl)-N-(2,3-difluoro-5-(7-(methylamino)-1,6-naphthyridin-3-yl)phenyl)picolinamide] | 100 to 500 |
| CNc1cc2ncc(-c3cc(F)cc(NC(=O)c4cc(C(C)(C)C#N)ccn4)c3)cc2cn1 [Compound 47, 4-(2-Cyanopropan-2-yl)-N-(3-fluoro-5-(7-(methylamino)-1,6-naphthyridin-3-yl)phenyl)picolinamide] | 100 to 500 |
| CNc1cc2ncc(-c3cc(NC(=O)c4cc(C(C)(C)C#N)ccn4)cc(Cl)c3C)cc2cn1 [Compound 48, N-(3-Chloro-4-methyl-5-(7-(methylamino)-1,6-naphthyridin-3-yl)phenyl)-4-(2-cyanopropan-2-yl)picolinamide] | ≥ 500 |
| CNc1cc2ncc(-c3cc(NC(=O)c4cc(C(C)(C)C#N)ccn4)cnn3)cc2cn1 [Compound 49, 4-(2-Cyanopropan-2-yl)-N-(6-(7-(methylamino)-1,6-naphthyridin-3-yl)pyridazin-4-yl)picolinamide] | < 20 |
| CNc1cc2ncc(-c3cc(NC(=O)c4cc(C(C)(C)C#N)ccn4)c(Cl)cc3C)cc2cn1 [Compound 50, N-(2-Chloro-4-methyl-5-(7-(methylamino)-1,6-naphthyridin-3-yl)phenyl)-4-(2-cyanopropan-2-yl)picolinamide] | 100 to 500 |
